This note sets out measurements from PubChem BioAssay (NCI).

Holding throughout (experiment): NCI anticancer screen, dose series, 48 h
Assay [1] concerns A549 NSCLC.
Assay [2] has as its system HCT-116 colon.
Assay [3] relates to HL-60(TB) leukemia.
The subject of assay [4] is HOP-62 NSCLC.
Assay [5] deals with K-562 leukemia.
In assay [6] the test system is MALME-3M melanoma.
The subject of assay [7] is MOLT-4 leukemia.
Assay [8] has as its system NCI-H226 lung.
In assay [9] the test system is RXF 393 renal.
Assay [10] has as its system SK-MEL-5 melanoma.

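Results reflect a 48-hour exposure of cells in 96-well plates to compound at five concentrations. GI50 = concentration required for 50% inhibition of growth. At the TGI there is no net growth.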

In the case of `N=C(N)c1ccc(N=Nc2c(O)c(C(=O)Nc3ccccc3)cc3ccccc23)cc1`, the TGI in assay [1] was above 100 µM; in assay [2] it was 12.5 µM; in assay [3], 55.1 µM; in [4], 41 µM; in assay [5] it was above 80.4 µM; in assay [6], 97.3 µM. In addition, the TGI was 8.33 µM in assay [7], above 100 µM in [8], above 68.4 µM in assay [9] and above 49.6 µM in [10].

Consider `Cc1cc(C)c(C2=NO[C@@H]3[C@H]2C(=O)C=C2N(Cc4ccccc4)CCO[C@@]23O)c(C)c1`, for which the TGI in [1], in assay [2], in [3], in assay [4], in assay [5] and in assay [6] was above 100 µM throughout. The TGI in assay [7], in assay [8], in assay [9] and in [10] was above 100 µM each time.

With `COc1ccccc1-c1cc(=O)c2cccnc2[nH]1`, the TGI in [1], in assay [2], in [3], in [4], in assay [5] and in assay [6] was above 100 µM throughout. Further, the TGI in [7], in assay [8], in assay [9] and in [10] was above 100 µM each time.

With `CCOC(=O)CCC(C(=O)OCC)n1nnc2cc(Nc3c(C)[n+]([O-])c4cc(Cl)ccc4[n+]3[O-])ccc21` (configuration not stated), the TGI in assay [1], in assay [2], in [3], in assay [4], in assay [5] and in assay [6] was above 100 µM in each case. Besides, the TGI in [7], in [8], in assay [9] and in assay [10] was above 100 µM in each case.

On to `CC1CC[C@@]2(OC1)OC1C[C@H]3[C@@H]4CC=C5C[C@@H](OC6OC(CO)C(OC7OC(CO)C(O)C(O)C7O)C(O)C6OC6OC(C)C(O)C(O)C6O)CC[C@]5(C)[C@H]4CC[C@]3(C)C1[C@@H]2C` (some centres not stated), for which the TGI in [1] stood at 2.15 µM; in assay [2], 2.31 µM; in assay [3], 1.97 µM; in [4], 1.6 µM; in [5] it was 1.09 µM; in assay [6], 1.33 µM. In addition, the TGI in [8] stood at 1.67 µM; in [9], 0.857 µM; in assay [10], 0.977 µM.

In the case of `C[C@]12CC[C@H]3[C@@H](CCC4=C/C(=N/OCCN5CCCCC5)CC[C@@]43C)[C@@H]1CC[C@@H]2O`, the TGI in assay [1] was 34.5 µM; in [2] it was above 100 µM; in assay [3] it was 8.05 µM; in assay [4] it was 29.1 µM; in [5], 7.25 µM; in assay [6], 33.7 µM. The TGI amounted to 20.9 µM in assay [7], 48.4 µM in assay [8], 40.8 µM in assay [9] and 26.4 µM in [10].

For the molecule `CC(CSc1nc2c(c(=N)n1-c1ccccc1)c(=S)n(-c1ccccc1)c(=S)n2-c1ccccc1)CN(C)C` (configuration not stated), the TGI in assay [2] came out at 3.07 µM; in assay [3], 2.37 µM; in assay [4] it was 3.62 µM; in [5], 3.14 µM; in [6], 3.23 µM; in assay [7] it was 3.02 µM. Moreover, the TGI was 14.2 µM in assay [8], 3.32 µM in [9] and 4.42 µM in assay [10].

Take `COc1cc2c(cc1OCCN1CCN(CCOc3cc4c(cc3OC)C(=O)N3CCC[C@H]3C=N4)CC1)N=C[C@@H]1CCCN1C2=O`: the TGI is above 100 µM in assay [1]; above 86.8 µM in [2]; above 100 µM in assay [3]; above 100 µM in assay [4]; above 60.5 µM in [5]; 38.4 µM in assay [6]. Moreover, the TGI in assay [7] was 6.78 µM; in assay [8] it was 66.2 µM; in [9] it was 56.3 µM; in assay [10], 48.9 µM.

On to `COc1cc(/C=C2\C(=O)N(c3ccc(Cl)cc3)C(c3ccccc3)S2(=O)=O)cc(OC)c1OC` (configuration not stated), for which the TGI in assay [1] was above 100 µM; in assay [2] it was above 100 µM; in assay [3], above 100 µM; in assay [4] it was above 96.7 µM; in [5], above 100 µM; in assay [6] it was above 100 µM. The TGI is above 100 µM in assay [7], above 100 µM in [8], above 100 µM in assay [9] and above 22 µM in assay [10].

On to `O=C(Nc1nnc(-c2ccccc2)o1)C(SC(=S)N1CCCC1)c1ccccc1` (configuration not stated), for which the TGI in assay [1] was above 100 µM; in assay [2] it was 79.5 µM; in assay [3], 48.1 µM; in assay [4], above 100 µM; in [5], above 100 µM; in assay [6], above 100 µM. Also, the TGI in assay [7] is above 100 µM; in assay [8], above 100 µM; in assay [9], above 100 µM; in [10], 38.2 µM.

As for `CC(C)(C)c1cc(C(C)(C)C)c2sc(=O)oc2c1O`, the TGI is 27.6 µM in [1]; 29.8 µM in [2]; 19.6 µM in [3]; 33.2 µM in assay [4]; 30.4 µM in [5]; 30.2 µM in assay [6]. Moreover, the TGI in assay [7] is above 100 µM; in assay [8] it was 36.2 µM; in assay [9], 26.3 µM; in [10], 27.9 µM.

On to `c1ccc(CN2CCC(CNc3ncnc4ccccc34)C2)cc1` (configuration not stated), for which the TGI in [1] was above 100 µM; in assay [2] it was above 100 µM; in assay [3] it was above 100 µM; in [4], above 100 µM; in assay [5], above 100 µM; in assay [6] it was 43 µM. Moreover, the TGI was above 100 µM in [7], above 100 µM in [8], above 100 µM in assay [9] and 82 µM in [10].

For `CCOC(=O)/C=C(/OCC)[C@@H]1C(C(=O)c2ccc(Cl)cc2)[C@@H]1/C(=C\C(=O)OCC)OCC` (some centres not stated), the TGI in assay [1] was above 100 µM; in [2], above 100 µM; in [3], 37.5 µM; in assay [4] it was above 100 µM; in assay [5], above 22.3 µM; in assay [6], above 100 µM. The TGI in assay [7] was above 24.4 µM; in [8], above 100 µM; in [9], above 78.5 µM; in assay [10], above 59.9 µM.

Consider `CCOC1OC(C)(C=C(C#N)C#N)CCC1C` (configuration not stated), for which the TGI was above 100 µM in [1]; above 100 µM in assay [2]; 80.4 µM in [3]; above 100 µM in assay [4]; 56.8 µM in assay [5]; above 100 µM in assay [6]. For the same molecule, the TGI in assay [7] is above 100 µM; in [8], 55.2 µM; in assay [9] it was above 91.7 µM; in assay [10] it was above 100 µM.

On to `Cc1c(C)c2c(c(N)c1C#N)C(=O)N(NC(=S)Nc1ccccc1)C2=O`, for which the TGI in [1], in assay [2], in assay [3], in assay [5], in assay [6] and in assay [7] was above 100 µM each time. The TGI in [8], in assay [9] and in [10] was above 100 µM in each case.

In the case of `COc1ccc(C2CC(c3cccc(Nc4ccncc4)c3)=NN2c2ccccc2)cc1` (configuration not stated), the GI50 in [2] is 1.68 µM; in assay [3] it was 2 µM; in [4] it was 2.25 µM; in [5], 2 µM; in assay [6], 1.62 µM; in assay [7], 2.07 µM. For the same molecule, the GI50 in assay [8] was 2.31 µM; in assay [9] it was 1.55 µM; in assay [10], 1.8 µM. Moreover, the TGI came to 3.29 µM in [2]; 4.06 µM in [3]; 5.81 µM in [4]; 5.05 µM in [5]; 3.08 µM in assay [6]; 4.63 µM in [7]. Besides, the results for the TGI in assay [8], in [9] and in assay [10] were 8.83 µM, 3.02 µM and 3.28 µM, respectively.

For the molecule `CCOC(=O)CC1(N)CC2c3ccccc3OC(=O)C2C(=O)N1` (configuration not stated), the TGI in assay [1], in assay [2], in assay [3], in assay [4], in assay [5] and in assay [6] was above 100 µM each time. Besides, the TGI in assay [7], in assay [8] and in assay [9] was above 100 µM throughout.

For the molecule `Clc1ccc(C2=CC(c3ccccc3)N3C(=N[C@H]4CCCC[C@@H]43)N2)cc1` (some centres not stated), the TGI in assay [1] was 18.4 µM; in assay [2], 11.6 µM; in assay [3], 7.79 µM; in assay [5], above 100 µM; in [6] it was 14.5 µM; in assay [7] it was 12.5 µM. In addition, the figures for the TGI in assay [8], in assay [9] and in assay [10] were 23 µM, 8.44 µM and 3.35 µM, respectively.

`CC1=NN(c2cc(Cl)c(S(=O)(=O)O)cc2Cl)C2(C1)C(Cl)C(=O)N2c1nc2ccccc2s1` (configuration not stated): the TGI in [1], in assay [2], in assay [3], in [5], in assay [6] and in [7] was above 100 µM throughout. Moreover, the TGI in [8], in [9] and in assay [10] was above 100 µM throughout.
